Patent US20170114030A1, “COMPOSITION WITH HIGH CONTENT OF CYCLIC DIPEPTIDE” (SUNTORY HOLDINGS LIMITED, priority 2014, published 2017)

Test system: NCI-H716 cells
Assay: In vitro GLP-1 secretion-accelerating action (active GLP-1 ELISA)
Assay type: cell-based
Settings: for Significant difference (p < 0.05) vs control group, amount of active GLP-1 secreted: 1 hour, Student's t-test; for Amount of active GLP-1 secreted (relative value to control group as 100), Average value: after 1 hour, group with no cyclic dipeptide = 100
Procedure: In the Test Examples below, data were represented as average value±standard error. In Test Examples 1, 2, and 3, a Student's t-test was used for a statistical test, and in other Test Examples, one-way ANOVA was carried out for dispersion analysis followed by a multiple comparison test by using a Dunnet's test. […] All of these analyses were carried out by using an SPSS for Windows release 17.0 (manufactured by SPSS Inc.).
Among the cyclic dipeptides, 92 highly water-soluble cyclic dipeptides were used in the following experiment. In each well of a Poly-L-Lysine 96-well plate, NCI-H716 cells suspended in 100 μL of a DMEM (with 10% FBS, 2 mM glutamine, and 1% antibiotics added in advance) were seeded at 0.5×10^5 cells/well, and cultured in a CO2 incubator (manufactured by ESPEC CORP.) for 48 hours. After washing with PBS(+), 100 μL of a PBS(+) solution with each cyclic dipeptide at a final concentration of 10 mM and 10 μM of Sitagliptin phosphate added therein was added to the cells. After 1 hour, the resultant solution was recovered, and the amount of active GLP-1 in the solution was measured by using the ELISA kit. In the analysis, the amount of active GLP-1 for a group with no cyclic dipeptide added was defined as 100, and relative values thereto were used.
In each Table, cyclic dipeptides for which an in vitro active GLP-1 secretion-accelerating activity was found and was not found are listed.

[1] = Experiment 5, cyclic dipeptide 10 mM with 10 μM Sitagliptin phosphate
[2] = Experiment 1, cyclic dipeptide 10 mM with 10 μM Sitagliptin phosphate
[3] = Experiment 2, cyclic dipeptide 10 mM with 10 μM Sitagliptin phosphate
[4] = Experiment 3, cyclic dipeptide 10 mM with 10 μM Sitagliptin phosphate

O=C1NCC(=O)N2CCCC12 (centres unmarked) [compound 4]
Significant difference (p < 0.05) vs control group, amount of active GLP-1 secreted (Experiment 5, 10 mM): Yes | Amount of active GLP-1 secreted (relative value to control group as 100), Average value [1]: 157

CC(C)CC1NC(=O)CNC1=O (centres unmarked) [compound 21]
Significant difference (p < 0.05) vs control group, amount of active GLP-1 secreted (Experiment 5, 10 mM): No | Amount of active GLP-1 secreted (relative value to control group as 100), Average value [1]: 131

O=C(O)CCC1NC(=O)CNC1=O (centres unmarked) [compound 24]
Significant difference (p < 0.05) vs control group, amount of active GLP-1 secreted (Experiment 5, 10 mM): No | Amount of active GLP-1 secreted (relative value to control group as 100), Average value [1]: 89

O=C1CNC(=O)C(Cc2c[nH]cn2)N1 (centres unmarked) [compound 27]
Significant difference (p < 0.05) vs control group, amount of active GLP-1 secreted (Experiment 5, 10 mM): No | Amount of active GLP-1 secreted (relative value to control group as 100), Average value [1]: 82

O=C(O)CC1NC(=O)CNC1=O (centres unmarked) [compound 32]
Significant difference (p < 0.05) vs control group, amount of active GLP-1 secreted (Experiment 5, 10 mM): Yes | Amount of active GLP-1 secreted (relative value to control group as 100), Average value [1]: 12

NC(=O)CCC1NC(=O)CNC1=O (centres unmarked) [compound 36]
Significant difference (p < 0.05) vs control group, amount of active GLP-1 secreted (Experiment 5, 10 mM): No | Amount of active GLP-1 secreted (relative value to control group as 100), Average value [1]: 75

NCCCC[C@@H]1NC(=O)[C@H](CCCCN)NC1=O [compound 40]
Significant difference (p < 0.05) vs control group, amount of active GLP-1 secreted (Experiment 1, 10 mM): No | Amount of active GLP-1 secreted (relative value to control group as 100), Average value [2]: 164

O=C(O)CC[C@@H]1NC(=O)[C@@H]2CCCN2C1=O [compound 45]
Significant difference (p < 0.05) vs control group, amount of active GLP-1 secreted (Experiment 1, 10 mM): No | Amount of active GLP-1 secreted (relative value to control group as 100), Average value [2]: 145

O=C1N[C@@H](CO)C(=O)N2CCC[C@@H]12 [compound 46]
Significant difference (p < 0.05) vs control group, amount of active GLP-1 secreted (Experiment 2, 10 mM): No | Amount of active GLP-1 secreted (relative value to control group as 100), Average value [3]: 139

NC(=O)CC[C@@H]1NC(=O)[C@H](Cc2ccccc2)NC1=O [compound 65]
Significant difference (p < 0.05) vs control group, amount of active GLP-1 secreted (Experiment 2, 10 mM): Yes | Amount of active GLP-1 secreted (relative value to control group as 100), Average value [3]: 227

CC(C)C[C@@H]1NC(=O)[C@H](CCCCN)NC1=O [compound 68]
Significant difference (p < 0.05) vs control group, amount of active GLP-1 secreted (Experiment 2, 10 mM): No | Amount of active GLP-1 secreted (relative value to control group as 100), Average value [3]: 208

O=C1N[C@@H](Cc2c[nH]c3ccccc23)C(=O)N[C@H]1CO [compound 78]
Significant difference (p < 0.05) vs control group, amount of active GLP-1 secreted (Experiment 2, 10 mM): No | Amount of active GLP-1 secreted (relative value to control group as 100), Average value [3]: 119

NCCCC[C@@H]1NC(=O)CNC1=O [compound 96]
Significant difference (p < 0.05) vs control group, amount of active GLP-1 secreted (Experiment 3, 10 mM): Yes | Amount of active GLP-1 secreted (relative value to control group as 100), Average value [4]: 133

NCCCCC1NC(=O)C(CCC(=O)O)NC1=O (centres unmarked) [compound 97]
Significant difference (p < 0.05) vs control group, amount of active GLP-1 secreted (Experiment 3, 10 mM): No | Amount of active GLP-1 secreted (relative value to control group as 100), Average value [4]: 66

NCCCCC1NC(=O)C(CO)NC1=O (centres unmarked) [compound 98]
Significant difference (p < 0.05) vs control group, amount of active GLP-1 secreted (Experiment 3, 10 mM): Yes | Amount of active GLP-1 secreted (relative value to control group as 100), Average value [4]: 71

CC(C)C1NC(=O)C(CCCCN)NC1=O (centres unmarked) [compound 99]
Significant difference (p < 0.05) vs control group, amount of active GLP-1 secreted (Experiment 3, 10 mM): Yes | Amount of active GLP-1 secreted (relative value to control group as 100), Average value [4]: 532

NCCCCC1NC(=O)C(CC(N)=O)NC1=O (centres unmarked) [compound 101]
Significant difference (p < 0.05) vs control group, amount of active GLP-1 secreted (Experiment 3, 10 mM): Yes | Amount of active GLP-1 secreted (relative value to control group as 100), Average value [4]: 250

NCCCCC1NC(=O)C(CCC(N)=O)NC1=O (centres unmarked) [compound 102]
Significant difference (p < 0.05) vs control group, amount of active GLP-1 secreted (Experiment 3, 10 mM): No | Amount of active GLP-1 secreted (relative value to control group as 100), Average value [4]: 112

NC(=O)CC1NC(=O)C(Cc2cnc[nH]2)NC1=O (centres unmarked) [compound 111]
Significant difference (p < 0.05) vs control group, amount of active GLP-1 secreted (Experiment 3, 10 mM): Yes | Amount of active GLP-1 secreted (relative value to control group as 100), Average value [4]: 341

N=C(N)NCCCC1NC(=O)C(Cc2cnc[nH]2)NC1=O (centres unmarked) [compound 112]
Significant difference (p < 0.05) vs control group, amount of active GLP-1 secreted (Experiment 3, 10 mM): No | Amount of active GLP-1 secreted (relative value to control group as 100), Average value [4]: 106

CC1NC(=O)C(CCC(=O)O)NC1=O (centres unmarked) [compound 113]
Significant difference (p < 0.05) vs control group, amount of active GLP-1 secreted (Experiment 3, 10 mM): No | Amount of active GLP-1 secreted (relative value to control group as 100), Average value [4]: 157

N=C(N)NCCCC1NC(=O)CNC1=O (centres unmarked) [compound 117]
Significant difference (p < 0.05) vs control group, amount of active GLP-1 secreted (Experiment 3, 10 mM): No | Amount of active GLP-1 secreted (relative value to control group as 100), Average value [4]: 98
